The values that follow come from PMC5884652, “New antimicrobial peptide kills drug-resistant pathogens without detectable resistance” (Oncotarget, 2018).

Ends that are not written are not given here.

One assay deals with E. coli. The assay is described as follows: SYTOX-Green uptake. The class given is cell-based. The following applies: E. coli 2 × 10^7 cfu/mL, 1 μM SYTOX-Green, 10 mM sodium phosphate buffer, pH 5.5 and pH 7.4.
For another assay, the system named is S. aureus 3518. In words: microbe, parasite or virus in culture. The class given is cell-based, Staphylococcus aureus. As to conditions: pH 7.4 (II); 10 mM sodium phosphate buffer, 10% LB; 37° C, 24 h; mean of 3 experiments. The text has this:
(§1) The method for peptide synthesis has been described in detail previously. E. coli ATCC 25922 (LB media), P. aeruginosa ATCC 15692 (NB+0.5% NaCl media), Listeria monocytogenes ATCC 3710 (LB media), Staphylococcus epidermidis ATCC 12228 (LB media), and S. aureus ATCC 29213 (TSB media) were obtained from the American Type Culture Collection (Manassas, VA, USA). Bacillus subtilis KCTC 1998 (LB media), Salmonella typhimurium KCTC 1926 (NB media), and Proteus vulgaris KCTC 2433 (NB media) were obtained from the Korean Collection for Type Cultures (Jeollabuk-do, Korea). E. coli CCARM 1238 was received from the Culture Collection of Antibiotic Resistant Microbes at Seoul Women’s University, Korea. Drug-resistant P. aeruginosa 3543, 3904, 3547, and 4007 and S. aureus 3126, 0027, 5157, 1635, 4761, 5159, 3359, 2122, 1630, 1870, 3511, 5156, and 3518 were resistant strains isolated from patients with otitis media in a Chonnam National University’s hospital.
(§2) The antibacterial activities of AMPs (melittin, clavaspirin, and its analogs) and conventional antibiotic drugs (erythromycin, gentamicin, ampicillin, and piperacidin) were determined using microdilution assays. Bacterial cells were cultured at 37° C in appropriate culture media at pH 5.5 or pH 7.4 until collection during the mid-log phase and suspended in 10 mM sodium phosphate buffer (pH 5.5 or pH 7.4) supplemented with 10% culture medium. Thereafter, 2× serial dilutions of each peptide (0.25–128 μM) or antibiotic (0.25–256 μM) were added to sterile 96-well plates, and aliquots of cell suspension (5 × 10^5 colony forming units (cfu)/mL) were seeded into each well. The samples were then incubated at 37° C for 24 h. At the end of the incubation, the minimum inhibitory concentrations (MICs) of the peptides were determined using a VERSA Max microplate reader (Molecular Devices Co., Sunnyvale, CA, USA) at a wavelength of 600 nm. […] MIC values were calculated as the mean of 3 independent experiments conducted in triplicate.

The next assay has as its system S. aureus 5157. The assay is described as follows: microbe, parasite or virus in culture. Type of assay: cell-based, Staphylococcus aureus. As to conditions: pH 7.4 (II); 10 mM sodium phosphate buffer, 10% LB; 37° C, 24 h; mean of 3 experiments.
Description: as §1, §2

Another assay relates to S. aureus 3359. The assay is described as follows: microbe, parasite or virus in culture. The class given is cell-based, Staphylococcus aureus. As to conditions: pH 7.4 (II); 10 mM sodium phosphate buffer, 10% LB; 37° C, 24 h; mean of 3 experiments.
Description: as §1, §2

The subject of the next assay is S. aureus 5159. The assay is described as follows: microbe, parasite or virus in culture. The class given is cell-based, Staphylococcus aureus. The following applies: pH 7.4 (II); 10 mM sodium phosphate buffer, 10% LB; 37° C, 24 h; mean of 3 experiments.
Description: as §1, §2

The test system of the next assay is S. aureus 3126. The assay is described as follows: microbe, parasite or virus in culture. Type of assay: cell-based, Staphylococcus aureus. As to conditions: pH 7.4 (II); 10 mM sodium phosphate buffer, 10% LB; 37° C, 24 h; mean of 3 experiments.
Description: as §1, §2

For a further assay, the system named is S. aureus 4761. The assay is described as follows: microbe, parasite or virus in culture. As to conditions: pH 7.4 (II); 10 mM sodium phosphate buffer, 10% LB; 37° C, 24 h; mean of 3 experiments. The class given is cell-based, Staphylococcus aureus.
Description: as §1, §2

The next assay has as its system S. aureus 1635. In words: microbe, parasite or virus in culture. The following applies: pH 7.4 (II); 10 mM sodium phosphate buffer, 10% LB; 37° C, 24 h; mean of 3 experiments. The class given is cell-based, Staphylococcus aureus.
Description: as §1, §2

Another assay deals with S. aureus 0027. The assay is described as follows: microbe, parasite or virus in culture. Type of assay: cell-based, Staphylococcus aureus. The following applies: pH 7.4 (II); 10 mM sodium phosphate buffer, 10% LB; 37° C, 24 h; mean of 3 experiments.
Description: as §1, §2

In another assay the test system is S. aureus 2122. The assay is described as follows: microbe, parasite or virus in culture. The class given is cell-based, Staphylococcus aureus. The following applies: pH 7.4 (II); 10 mM sodium phosphate buffer, 10% LB; 37° C, 24 h; mean of 3 experiments.
Description: as §1, §2

The test system of the next assay is S. aureus 1870. The assay is described as follows: microbe, parasite or virus in culture. The class given is cell-based, Staphylococcus aureus. As to conditions: pH 7.4 (II); 10 mM sodium phosphate buffer, 10% LB; 37° C, 24 h; mean of 3 experiments.
Description: as §1, §2

The next assay has as its system S. aureus 1630. The assay is described as follows: microbe, parasite or virus in culture. Type of assay: cell-based, Staphylococcus aureus. The following applies: pH 7.4 (II); 10 mM sodium phosphate buffer, 10% LB; 37° C, 24 h; mean of 3 experiments.
Description: as §1, §2

In another assay the test system is S. aureus 5156. In words: microbe, parasite or virus in culture. Type of assay: cell-based, Staphylococcus aureus. As to conditions: pH 7.4 (II); 10 mM sodium phosphate buffer, 10% LB; 37° C, 24 h; mean of 3 experiments.
Description: as §1, §2

In another assay the test system is S. aureus 3511. In words: microbe, parasite or virus in culture. Type of assay: cell-based, Staphylococcus aureus. The following applies: pH 7.4 (II); 10 mM sodium phosphate buffer, 10% LB; 37° C, 24 h; mean of 3 experiments.
Description: as §1, §2

The subject of the next assay is E. coli CCARM1238. The assay is described as follows: microbe, parasite or virus in culture. Type of assay: cell-based, Escherichia coli. The following applies: pH 7.4 (II); 10 mM sodium phosphate buffer, 10% LB; 37° C, 24 h; mean of 3 experiments.
Description: as §1, §2

In the case of FLRFIGSVKHGKGHLVHHIGVAL-NH2 [CSP-4], the “Membrane disruption (SYTOX-Green fluorescence)” value in the assay with E. coli is given as “dose-dependent increase in fluorescence intensity”. Moreover, the MIC in the assay with S. aureus 3518, in the assay on S. aureus 5157, against S. aureus 3359, against S. aureus 5159, in the assay with S. aureus 3126 and against S. aureus 4761 was 8 µM in each case. In addition, the MIC with S. aureus 1635, against S. aureus 0027, against S. aureus 2122, in the assay on S. aureus 1870, with S. aureus 1630 and with S. aureus 5156 was 8 µM throughout. Further, the values for the MIC against S. aureus 3511 and in the assay on E. coli CCARM1238 were 8 µM and 2 µM, respectively.
